Data as given in PMC8002023, “3D Pharmacophore-Based Discovery of Novel KV10.1 Inhibitors with Antiproliferative Activity” (Cancers, 2021).
“Also recorded” adds a separate entry of the source.

What was measured:
MCF-7 cells = test: Cell growth in 2D culture (Incucyte confluence, 72 h), MCF-7; format: cell-based; conditions: for IC50: high KV10.1 and low hERG expression
Protocol: Cell lines MCF-7 (DSMZ ACC 115), PANC-1 (DSMZ ACC 783), and hTERT-RPE1 (ATCC CRL 4000) were grown in the media recommended by the cell provider in a humidified atmosphere at 5% CO2 and 37 °C. For cell growth experiments, 10^4 cells/well were seeded in 96-well flat bottom culture plates (Corning) and allowed to grow for 24 h. The compounds were then added in the corresponding growth medium, and the plate was imaged every hour for 72 h (two images per well and eight wells per condition in two independent experiments for compound 8 and five for ZVS-08 and compound 1) in an Incucyte system (Sartorius/Essen biosciences). Culture confluence was determined in the phase contrast images and is expressed as percent confluence per well. The growth was then normalised to the value in the absence of compounds.
KV10.1 inhibitors with a favourable pharmacological profile are promising candidates for cancer therapy. To investigate the activity of the new compounds on cancer cells proliferation, compounds ZVS-08, 1 and 8 were tested on MCF-7, a breast cancer cell line showing high KV10.1 expression and low hERG expression, and on Panc1, a pancreatic cancer cell line with undetectable KV10.1 expression and high level of hERG expression. hTERT-RPE1 cells served as a non-cancer cell line. hTERT-RPE1 cells show transient physiological expression of Kv10.1 that begins during the G2 phase of the cell cycle and extends through mitosis as present in normal cells. Different concentrations of the compounds were added to the culture medium and the growth of the cell was monitored over 72 h (Figure 14).

[1] = system: Salmonella typhimurium strain TA98; test: Salmonella/microsomal reverse mutation (Ames) assay, TA98; parameters: key to bacterial background lawn: slightly reduced bacterial background; moderately reduced bacterial background; extremely reduced bacterial background; bacterial background is absent; conditions: for mutagenic response: TA98, 0.0158–0.158 mg/plate, −S9 and +S9; for cytotoxic concentration to bacterial strain: TA98, −/+ S9 metabolic activation; for induction factor (IF): IF ≥ 2 positive
Protocol: (§1) Mutagenicity of compounds ZVS-08 and 8 was tested with the Salmonella/microsomal reverse mutation (Ames) assay on Salmonella typhimurium strains TA98 and TA100 without and with external metabolic activation according to the OECD guidelines (OECD TG 471) with minor modifications. Briefly, 100 µL of ZVS-08 and 8 (0.158, 0.5, 1.58, 5, 15.8, and 50 mg/mL corresponding to the final concentration of 0.0158, 0.05, 0.158, 0.5, 1.58, and 5 mg/plate, respectively), […] bacterial culture of S. typhimurium (overnight culture at 37 °C), and […] of phosphate buffer (for assays without metabolic activation) or 10% S9 mix (for assays with metabolic activation) were added to 2 mL of molten top agar (supplemented with histidine/biotin, final concentration 0.05 mM), gently mixed and poured onto minimal agar plates. The number of His+ revertants was counted after 48 h (TA100) and 72 h (TA98) of incubation at 37 °C. Three plates were used per treatment point. The mutagenic potential of the compounds was expressed as an induction factor (IF), where IF = (number of revertants in the presence of the compound)/(number of revertants in solvent control). Additionally, each plate was checked for possible toxic effects of tested compounds. […] 4-nitroquinoline- N-oxide (4-NQNO; 0.25 μg/plate) for TA98 and sodium azide (NaN3; 0.25 μg/plate) for TA100 were used as positive controls without S9 metabolic activation, while benzo[a]pyrene (B[a]P; 2.5 μg/plate) was used as positive controls for both bacterial strains with S9 metabolic activation.

[2] = system: Salmonella typhimurium strain TA100; test: Salmonella/microsomal reverse mutation (Ames) assay, TA100; parameters: key to bacterial background lawn: slightly reduced bacterial background; moderately reduced bacterial background; extremely reduced bacterial background; bacterial background is absent; conditions: for mutagenic response: TA100, 0.0158–0.158 mg/plate, −S9 and +S9; for cytotoxic concentration to bacterial strain: TA100, −/+ S9 metabolic activation; for induction factor (IF): IF ≥ 2 positive
Protocol: as §1

KV10.1 = target: T1, KV10.1 (Homo sapiens, UniProt O95259); test: Whole-cell patch clamp on HEK-293 cells stably expressing KV10.1; format: cell-based; conditions: HEK293; 10 μM; mean ± standard error (or range)
T1 construct: expressed in transfected cells
T1 sequence (O95259 1-962 isoform O95259-2): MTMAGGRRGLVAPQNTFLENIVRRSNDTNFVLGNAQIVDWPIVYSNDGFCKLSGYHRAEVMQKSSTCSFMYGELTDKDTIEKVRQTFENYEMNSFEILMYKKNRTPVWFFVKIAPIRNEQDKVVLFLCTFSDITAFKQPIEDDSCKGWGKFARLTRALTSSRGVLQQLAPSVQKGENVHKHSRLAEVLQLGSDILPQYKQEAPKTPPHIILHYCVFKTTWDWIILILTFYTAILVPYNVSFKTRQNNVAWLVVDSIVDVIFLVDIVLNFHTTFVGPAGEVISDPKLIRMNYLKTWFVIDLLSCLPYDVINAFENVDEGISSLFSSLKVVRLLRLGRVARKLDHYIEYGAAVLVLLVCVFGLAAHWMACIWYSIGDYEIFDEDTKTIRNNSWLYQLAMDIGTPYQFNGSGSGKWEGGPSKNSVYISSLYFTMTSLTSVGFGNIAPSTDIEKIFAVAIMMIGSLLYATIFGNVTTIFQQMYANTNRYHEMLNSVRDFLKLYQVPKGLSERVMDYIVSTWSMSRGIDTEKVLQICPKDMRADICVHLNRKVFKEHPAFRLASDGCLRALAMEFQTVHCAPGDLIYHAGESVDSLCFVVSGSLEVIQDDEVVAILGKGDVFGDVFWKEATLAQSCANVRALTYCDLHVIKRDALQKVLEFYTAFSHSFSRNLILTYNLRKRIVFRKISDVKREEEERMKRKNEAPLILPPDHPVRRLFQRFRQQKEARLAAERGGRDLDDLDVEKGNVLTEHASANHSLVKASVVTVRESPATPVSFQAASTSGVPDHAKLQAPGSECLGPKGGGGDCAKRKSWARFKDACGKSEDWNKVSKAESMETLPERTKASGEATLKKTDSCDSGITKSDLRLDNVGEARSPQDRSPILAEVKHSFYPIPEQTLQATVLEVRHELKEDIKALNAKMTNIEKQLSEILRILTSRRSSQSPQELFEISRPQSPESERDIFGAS

## O=[N+]([O-])c1cc(C(F)(F)F)ccc1Nc1ccc(OCC(O)CN2CCOCC2)cc1 (stereo not shown) [Compound 8]
MCF-7 cells; concentrations tested
  effect on growth of MCF-7 cells: ineffective; also recorded: inactive
[1]
  mutagenic response: no mutagenic response
  cytotoxic concentration to bacterial strain: ≥ 0.5 mg/plate
[2]
  mutagenic response: no mutagenic response
  cytotoxic concentration to bacterial strain: ≥ 0.5 mg/plate
KV10.1
  inhibition at 10 µM: 81.2 ± 4.97%

## CN(C)CC(O)COc1ccc(Nc2ccc(C(F)(F)F)cc2[N+](=O)[O-])cc1 (stereo not shown) [ZVS-08]
MCF-7 cells; Homo sapiens, MCF7, 72 h
  IC50: 6.8 µM
MCF-7 cells
  IC50: ~5 µM
[1]
  mutagenic response: no mutagenic response
  cytotoxic concentration to bacterial strain: ≥ 0.5 mg/plate
[1]; TA98, +S9, 0.0158 mg/plate
  Average number of revertant colonies (mean ± SD): 31.00 ± 3.61
  induction factor (IF): 0.85
[1]; TA98, +S9, 0.05 mg/plate
  Average number of revertant colonies (mean ± SD): 45.33 ± 8.62
  induction factor (IF): 1.25
[1]; TA98, +S9, 0.158 mg/plate
  Average number of revertant colonies (mean ± SD): 34.67 ± 14.05
  bacterial background lawn: a
  induction factor (IF): 0.95
[1]; TA98, +S9, 0.5 mg/plate
  Average number of revertant colonies (mean ± SD): 0
  bacterial background lawn: b
[1]; TA98, +S9, 1.58 mg/plate
  Average number of revertant colonies (mean ± SD): 0
  bacterial background lawn: d
[1]; TA98, +S9, 5 mg/plate
  Average number of revertant colonies (mean ± SD): 0
  bacterial background lawn: d
[1]; TA98, -S9, 0.0158 mg/plate
  Average number of revertant colonies (mean ± SD): 21.67 ± 4.51
  induction factor (IF): 0.86
[1]; TA98, -S9, 0.05 mg/plate
  Average number of revertant colonies (mean ± SD): 22.67 ± 8.08
  induction factor (IF): 0.89
[1]; TA98, -S9, 0.158 mg/plate
  Average number of revertant colonies (mean ± SD): 17.67 ± 3.79
  bacterial background lawn: a
  induction factor (IF): 0.70
[1]; TA98, -S9, 0.5 mg/plate
  Average number of revertant colonies (mean ± SD): 0
  bacterial background lawn: c
[1]; TA98, -S9, 1.58 mg/plate
  Average number of revertant colonies (mean ± SD): 0
  bacterial background lawn: d
[1]; TA98, -S9, 5 mg/plate
  Average number of revertant colonies (mean ± SD): 0
  bacterial background lawn: d
[2]
  mutagenic response: no mutagenic response
  cytotoxic concentration to bacterial strain: ≥ 0.5 mg/plate
[2]; TA100, +S9, 0.0158 mg/plate
  Average number of revertant colonies (mean ± SD): 102.67 ± 15.01
  induction factor (IF): 1.02
[2]; TA100, +S9, 0.05 mg/plate
  Average number of revertant colonies (mean ± SD): 81.67 ± 14.57
  induction factor (IF): 0.81
[2]; TA100, +S9, 0.158 mg/plate
  Average number of revertant colonies (mean ± SD): 71.00 ± 7.21
  bacterial background lawn: a
  induction factor (IF): 0.71
[2]; TA100, +S9, 0.5 mg/plate
  Average number of revertant colonies (mean ± SD): 0
  bacterial background lawn: b
[2]; TA100, +S9, 1.58 mg/plate
  Average number of revertant colonies (mean ± SD): 0
  bacterial background lawn: d
[2]; TA100, +S9, 5 mg/plate
  Average number of revertant colonies (mean ± SD): 0
  bacterial background lawn: d
[2]; TA100, -S9, 0.0158 mg/plate
  Average number of revertant colonies (mean ± SD): 114.00 ±2.00
  induction factor (IF): 1.29
[2]; TA100, -S9, 0.05 mg/plate
  Average number of revertant colonies (mean ± SD): 99.67 ± 16.80
  induction factor (IF): 1.12
[2]; TA100, -S9, 0.158 mg/plate
  Average number of revertant colonies (mean ± SD): 81.00 ± 5.29
  bacterial background lawn: a
  induction factor (IF): 0.91
[2]; TA100, -S9, 0.5 mg/plate
  Average number of revertant colonies (mean ± SD): 0
  bacterial background lawn: c
[2]; TA100, -S9, 1.58 mg/plate
  Average number of revertant colonies (mean ± SD): 0
  bacterial background lawn: d
[2]; TA100, -S9, 5 mg/plate
  Average number of revertant colonies (mean ± SD): 0
  bacterial background lawn: d
